The target of one experiment is PRMT5-MTA (Homo sapiens, UniProt O14744). In words: Enzymatic inhibitory activity against PRMT5-MTA (AlphaScreen). Type of experiment: biochemical. The procedure, abridged:
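PRMT5/[…] (1 nM) was preincubated for 30 min at room temperature with 1 µM […] and 2.5 µM SAM, then exposed to compound (10-point, 3-fold from 1000 nM) for 15 min at 23 °C. Histone H4 substrate (5 nM) was added and reacted for 45 min at 23 °C. Symmetric dimethyl-R3 H4 was detected by AlphaScreen and IC50 calculated.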

The test system of another experiment is HCT116-WT cells. The experiment can be described thus: Inhibitory activity against cell proliferation (CellTiter Glo, 6 days), HCT116-WT. Conditions: HCT116-WT cells, 6 days, CellTiter Glo, read-out: HCT116-WT IC50. Type of experiment: cell-based. A digest of the protocol: (§1)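 250 cells/well, McCoy's 5A + 10% FBS, o/n 37°C 5% CO2; cpd 8-pt 4-fold from 10000 nM, 6 d; CTG lum on day 7; IC50 vs DMSO.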

In another experiment the test system is HCT116 MTAP KO cells. The experiment can be described thus: Inhibitory activity against cell proliferation (CellTiter Glo, 6 days), HCT116 MTAP KO. To be noted: for IC50: HCT116 MTAP KO cells, 6 days, CellTiter Glo, read-out: HCT116 MTAP KO IC50; for Selectivity HCT 116-WT/ HCT116 MTAP KO: ratio of IC50 HCT116-WT / HCT116 MTAP KO. Type of experiment: cell-based. A digest of the protocol:
as §1

The structures appear in SMILES notation. Where two headings read alike, the source gives them in different places.

Data on 9 molecules can be found in EP4745134A1 (Jiangsu Yahong Meditech Co., Ltd., priority 2023, dated 2025).

Chain of PRMT5-MTA (O14744 whole entry): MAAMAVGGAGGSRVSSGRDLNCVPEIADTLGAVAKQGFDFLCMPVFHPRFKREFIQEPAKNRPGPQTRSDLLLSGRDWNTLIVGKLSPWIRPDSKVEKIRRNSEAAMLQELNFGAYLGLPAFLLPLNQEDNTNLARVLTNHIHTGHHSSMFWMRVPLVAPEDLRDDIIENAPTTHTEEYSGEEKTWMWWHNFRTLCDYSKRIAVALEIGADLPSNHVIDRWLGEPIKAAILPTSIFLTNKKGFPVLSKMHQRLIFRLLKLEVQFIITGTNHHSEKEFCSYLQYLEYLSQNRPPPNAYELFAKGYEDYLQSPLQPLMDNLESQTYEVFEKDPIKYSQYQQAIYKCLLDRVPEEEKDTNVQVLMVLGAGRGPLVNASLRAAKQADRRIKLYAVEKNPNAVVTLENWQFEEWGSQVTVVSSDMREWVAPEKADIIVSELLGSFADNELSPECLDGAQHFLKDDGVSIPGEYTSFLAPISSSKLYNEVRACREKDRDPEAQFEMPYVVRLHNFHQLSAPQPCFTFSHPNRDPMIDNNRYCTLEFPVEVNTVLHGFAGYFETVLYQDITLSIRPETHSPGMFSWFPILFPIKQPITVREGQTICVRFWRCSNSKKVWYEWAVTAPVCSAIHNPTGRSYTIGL
Chain of PRMT5-MTA (Q9BQA1 whole entry partner): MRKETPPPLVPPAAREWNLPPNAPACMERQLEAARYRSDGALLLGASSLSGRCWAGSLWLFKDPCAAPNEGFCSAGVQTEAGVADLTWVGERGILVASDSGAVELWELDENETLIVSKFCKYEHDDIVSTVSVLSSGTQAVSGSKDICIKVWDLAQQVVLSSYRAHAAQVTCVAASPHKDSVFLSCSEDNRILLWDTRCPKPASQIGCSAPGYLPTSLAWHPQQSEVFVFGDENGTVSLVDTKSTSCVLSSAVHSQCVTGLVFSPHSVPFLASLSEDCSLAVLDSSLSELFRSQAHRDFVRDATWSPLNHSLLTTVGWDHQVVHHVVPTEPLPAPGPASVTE

One may read the IC50 as the concentration that gives 50% inhibition. Consider `Cc1cc2nc(N)c3cnn(C)c3c2cc1C(=O)N1CCCN1c1ncccc1F` [Example 342, (4-amino-1,7-dimethyl-1H-pyrazolo[4,3-c]quinolin-8-yl)(2-(3-fluoropyridin-2-yl)pyrazolidin-1-yl)methanone], for which the half-inhibitory concentration (IC50) on PRMT5-MTA (read-out: IC50) was 3.8 nM; in the experiment with HCT116-WT cells (144 h), 6800 nM; in the experiment with HCT116 MTAP KO cells (Homo sapiens, HCT-116, 144 h), 100 nM. In addition, the “Selectivity HCT 116-WT/ HCT116 MTAP KO” value with HCT116 MTAP KO cells came to 67.95.

Regarding `Cc1ncc(-c2cnc(N3CC(C)CN3C(=O)c3cc4c(cc3C)nc(N)c3cnn(C)c34)c(F)c2)s1` (stereo not drawn) [Example 476, (4-amino-1,7-dimethyl-1H-pyrazolo[4,3-c]quinolin-8-yl)(2-(3-fluoro-5-(2-methylthiazol-5-yl)pyridin-2-yl)-4-methylpyrazolidin-1-yl)methanone], the IC50 was determined as 5.6 nM on PRMT5-MTA (read-out: IC50); 942 nM in the experiment on HCT116-WT cells (144 h); 28 nM with HCT116 MTAP KO cells (Homo sapiens, HCT-116, 144 h). Also, in the experiment with HCT116 MTAP KO cells, the “Selectivity HCT 116-WT/ HCT116 MTAP KO” value came to 33.64.

On to `Cn1ncc2c(N)nc3cc(Cl)c(C(=O)N4CC5(CN4c4ncc(Cl)cc4F)CC(F)(F)C5)cc3c21` [Example 412, (4-amino-7-chloro-1-methyl-1H-pyrazolo [4,3-c]quinolin-8-yl)(7-(5-chloro-3-fluoropyridin-2-yl)-2,2-difluoro-6,7-diazaspiro[3.4]octan-6-yl)methanone], for which the IC50 on PRMT5-MTA (read-out: IC50) turned out to be 6.2 nM; with HCT116-WT cells (144 h) it was 179 nM; in the experiment with HCT116 MTAP KO cells (Homo sapiens, HCT-116, 144 h) it was 10 nM. The “Selectivity HCT 116-WT/ HCT116 MTAP KO” value with HCT116 MTAP KO cells turned out to be 17.90.

In the case of `C=C1CN(C(=O)c2cc3c(cc2Cl)nc(N)c2cnn(C)c23)N(c2cccc(F)n2)C1` [Example 435, (4-amino-7-chloro-1-methyl-1H-pyrazolo [4,3-c]quinolin-8-yl)(2-(6-fluoropyridin-2-yl)-4-methylenepyrazolidin-1-yl)methanone], the 50% inhibitory concentration (IC50) at PRMT5-MTA (read-out: IC50) was 7.3 nM; with HCT116-WT cells (144 h), 407 nM; with HCT116 MTAP KO cells (Homo sapiens, HCT-116, 144 h), 15 nM. Moreover, the “Selectivity HCT 116-WT/ HCT116 MTAP KO” value in the experiment on HCT116 MTAP KO cells was 27.13.

Consider `CN(c1ccccc1)N(Cc1ccc(C(F)(F)F)cn1)C(=O)c1ccc2nc(N)c3cnn(C)c3c2c1` [Example 15, 4-amino-N',1-dimethyl-N'-phenyl-N-((5-(trifluoromethyl)pyridin-2-yl)methyl)-1H-pyrazolo[4,3-c]quinoline-8-carbohydrazide], for which the values for the half-inhibitory concentration (IC50) on PRMT5-MTA (read-out: IC50), in the experiment with HCT116-WT cells and with HCT116 MTAP KO cells were 3.7 nM, 475 nM and 26 nM, respectively. The “Selectivity HCT 116-WT/ HCT116 MTAP KO” value with HCT116 MTAP KO cells was 18.27.

On to `Cc1cc2cc(C(=O)N(Cc3ccc(C(F)(F)F)cn3)N(C)c3nccs3)ccc2nc1N` [Example 33, 2-amino-N',3-dimethyl-N'-(thiazol-2-yl)-N-((5-(trifluoromethyl)pyridin-2-yl)methyl)quinoline-6-carbohydrazide], for which the 50% inhibitory concentration (IC50) on PRMT5-MTA (read-out: IC50) came to 3.3 nM; in the experiment with HCT116-WT cells (144 h), 2480 nM; in the experiment on HCT116 MTAP KO cells (Homo sapiens, HCT-116, 144 h) it was 125 nM. The “Selectivity HCT 116-WT/ HCT116 MTAP KO” value in the experiment with HCT116 MTAP KO cells came to 19.87.

For the molecule `COC1CN(C(=O)c2cc3c(cc2C)nc(N)c2cnn(C)c23)N(c2ccccc2F)C1` (stereo not drawn) [Example 436], the IC50 is 4.8 nM against PRMT5-MTA; 734 nM in the experiment on HCT116-WT cells (144 h); 27 nM with HCT116 MTAP KO cells (Homo sapiens, HCT-116, 144 h). Moreover, in the experiment with HCT116 MTAP KO cells, the “Selectivity HCT 116-WT/ HCT116 MTAP KO” value is on record as 27.19.

`Cc1cc2cc(C(=O)N(Cc3ccc(-c4scnc4C(F)(F)F)cn3)N(C)c3ncccn3)ccc2nc1N` [Example 237, 2-amino-N',3-dimethyl-N'-(pyrimidin-2-yl)-N-((5-(4-(trifluoromethyl)thiazol-5-yl)pyridin-2-yl)methyl)quinoline-6-carbohydrazide]: the IC50 at PRMT5-MTA (read-out: IC50) is 8 nM; with HCT116-WT cells (144 h), 1180 nM; in the experiment with HCT116 MTAP KO cells (Homo sapiens, HCT-116, 144 h) it was 32 nM. Moreover, the “Selectivity HCT 116-WT/ HCT116 MTAP KO” value with HCT116 MTAP KO cells came to 36.97.

For the molecule `Cc1cc2cc(C(=O)N(Cc3ccc(C4=CCCOC4)cn3)N(C)c3ncccn3)ccc2nc1N` [Example 187, 2-amino-N-((5-(5,6-dihydro-2H-pyran-3-yl)pyridin-2-yl)methyl)-N',3-dimethyl-N' -(pyrimidin-2-yl)quinoline-6-carbohydrazide], the half-maximal inhibitory concentration (IC50) at PRMT5-MTA (read-out: IC50) worked out at 2.3 nM; with HCT116-WT cells (144 h) it was 788 nM; in the experiment with HCT116 MTAP KO cells (Homo sapiens, HCT-116, 144 h), 33 nM. In the experiment on HCT116 MTAP KO cells, the “Selectivity HCT 116-WT/ HCT116 MTAP KO” value worked out at 23.88.
